One experiment relates to AMPKa [pT172]. The experiment in a line: AMPKa activation [pT172] in MCF7 cell. Format: cell-based.
Another experiment relates to HCT116 cells. Nature of the experiment: Inhibitory effect against cancer cell proliferation (MTT). The conditions noted are these: HCT116, MTT, 48 hours, read-out: IC50 (uM) @ HCT116. Format: cell-based, human. How it is done: The formazane crystals thus formed were dissolved using dimethyl sulfoxide (DMSO) and absorbance of the solution was measured at 560 nm. After culturing for 48 hours, […] synthesized in Examples was indicated as cell viability (%) according to each treated concentration.

Read-outs that look alike come from different tables or passages of the source.

`Cl.N=C(NC(=N)N1CCCC1)Nc1ccc(SC(F)(F)F)cc1` [Example 79, N1-pyrrolidin-N5-(4-trifluoromethylthio)phenyl Biguanide Hydrochloride]: the results for the “AMPKa activation [pT172] (Unit/ml) @ MCF7 cell” value (shortened to “AMPKa activation [pT172]”) in the experiment with AMPKa [pT172] (5 uM), with AMPKa [pT172] (10 uM) and in the experiment on AMPKa [pT172] (50 uM) were 7.8 Unit/ml, 11.7 Unit/ml and “cell death”, respectively. The IC50 in the experiment on HCT116 cells (Homo sapiens, HCT-116) came to 7.9 µM.
On to `Cl.N=C(NC(N)=NCCc1cccs1)N1CCCCC1` [Example 99, N1-piperidin-N2-(2-thiophen-2-yl)ethyl Biguanide Hydrochloride], for which the “AMPKa activation [pT172]” value was 4.0 Unit/ml in the experiment with AMPKa [pT172] (5 uM), 2.9 Unit/ml in the experiment with AMPKa [pT172] (10 uM) and 3.6 Unit/ml in the experiment on AMPKa [pT172] (50 uM). In the experiment on HCT116 cells, the IC50 was above 100 µM.
On to `CC1CCN(C(=N)NC(=N)Nc2ccc(Br)cc2)CC1.Cl` [Example 48, N1-(4-methyl)piperidin-N5-(4-bromo)phenyl Biguanide Hydrochloride], for which the results for the “AMPKa activation [pT172]” value in the experiment with AMPKa [pT172] (5 uM), in the experiment on AMPKa [pT172] (10 uM) and in the experiment on AMPKa [pT172] (50 uM) were 4.3 Unit/ml, 6.8 Unit/ml and “cell death”, respectively. Further, the IC50 in the experiment with HCT116 cells (Homo sapiens, HCT-116) was 8.6 µM.
In the same order, the values of `Cl.N=C(N)NC(=N)NCc1ccc(OC(F)(F)F)cc1` [Example 142, N1-(4-trifluoromethoxy)benzyl Biguanide Hydrochloride] are 4.7 Unit/ml, 6.0 Unit/ml, 7.2 Unit/ml and 73.6 µM.
Taken in the same sequence, the figures for `CN1CCN(C(=N)NC(=N)Nc2ccccc2Cl)CC1.Cl` [Example 30, N1-(4-methyl)piperazin-N5-(2-chloro)phenyl Biguanide Hydrochloride] were 4.2 Unit/ml, 4.0 Unit/ml, 4.2 Unit/ml and above 100 µM.
Turning to `Cl.N=C(NC(=N)N1CCCC1)Nc1cccc(Cl)c1Cl` [Example 78, N1-pyrrolidin-N5-(2,3-dichloro)phenyl Biguanide Hydrochloride], the “AMPKa activation [pT172]” value is given as 3.4 Unit/ml in the experiment on AMPKa [pT172] (5 uM), 3.4 Unit/ml with AMPKa [pT172] (10 uM) and 3.8 Unit/ml with AMPKa [pT172] (50 uM). In addition, the half-maximal inhibitory concentration (IC50) with HCT116 cells (Homo sapiens, HCT-116) worked out at 58.3 µM.
On to `Cl.N=C(NC(=N)N1CC=CC1)Nc1cccnc1` [Example 66, N1-2,5-dihydro-1H-pyrrol-N5-pyridin-3-yl Biguanide Hydrochloride], for which the figures for the “AMPKa activation [pT172]” value in the experiment with AMPKa [pT172] (5 uM), with AMPKa [pT172] (10 uM) and in the experiment with AMPKa [pT172] (50 uM) were 3.3 Unit/ml, 3.7 Unit/ml and 4.1 Unit/ml, respectively. Moreover, in the experiment with HCT116 cells (Homo sapiens, HCT-116), the IC50 was above 100 µM.
Consider `Cl.N=C(N)NC(=N)Nc1ccccc1C(F)(F)F` [Example 119, N1-(2-trifluoromethyl)phenyl Biguanide Hydrochloride], for which the figures for the “AMPKa activation [pT172]” value in the experiment with AMPKa [pT172] (5 uM), with AMPKa [pT172] (10 uM) and in the experiment on AMPKa [pT172] (50 uM) were 6.9 Unit/ml, 8.8 Unit/ml and 8.5 Unit/ml, respectively. Besides, the IC50 with HCT116 cells (Homo sapiens, HCT-116) is 3.5 µM.
For `COc1ccc(NC(=N)NC(=N)N2CCCCC2)cc1.Cl` [Example 73, N1-piperidin-N5-(4-methoxy)phenyl Biguanide Hydrochloride], the figures for the “AMPKa activation [pT172]” value in the experiment on AMPKa [pT172] (5 uM), in the experiment on AMPKa [pT172] (10 uM) and in the experiment on AMPKa [pT172] (50 uM) were 3.9 Unit/ml, 4.5 Unit/ml and 9.1 Unit/ml, respectively. In the experiment on HCT116 cells (Homo sapiens, HCT-116), the IC50 is above 100 µM.
`Cl.N=C(N)NC(=N)N(Cc1ccccc1)Cc1ccccc1` [Example 130, N1,N1-dibenzyl Biguanide Hydrochloride]: the “AMPKa activation [pT172]” value in the experiment with AMPKa [pT172] (50 uM) amounted to 8.8 Unit/ml. In the experiment with HCT116 cells (Homo sapiens, HCT-116), the IC50 was above 100 µM.
In the case of `CN1CCN(C(=N)NC(=N)Nc2cccc(OC(F)(F)F)c2)CC1.Cl` [Example 22, N1-(4-methyl)piperazin-N5-(3-trifluoromethoxy)phenyl Biguanide Hydrochloride], the “AMPKa activation [pT172]” value in the experiment on AMPKa [pT172] (5 uM) was 3.8 Unit/ml; with AMPKa [pT172] (10 uM), 10.1 Unit/ml; in the experiment on AMPKa [pT172] (50 uM) it was 22.3 Unit/ml. The IC50 in the experiment on HCT116 cells (Homo sapiens, HCT-116) worked out at 35.2 µM.
Regarding `Cl.N=C(NC(=N)N1CCCC1)Nc1cc(C(F)(F)F)ccc1Cl` [Example 76, N1-pyrrolidin-N5-(2-chloro-5-trifluoromethyl)phenyl Biguanide Hydrochloride], the “AMPKa activation [pT172]” value in the experiment with AMPKa [pT172] (5 uM) came out at 4.5 Unit/ml; in the experiment with AMPKa [pT172] (10 uM) it was 4.7 Unit/ml; in the experiment on AMPKa [pT172] (50 uM), 8.8 Unit/ml. Besides, the IC50 with HCT116 cells (Homo sapiens, HCT-116) came to 42.1 µM.
As to `Cl.N=C(NC(=N)N1CC=CC1)N1CC=CC1` [Example 67, N1-2,5-dihydro-1H-pyrrol-N5-2,5-dihydro-1H-pyrrole Biguanide Hydrochloride], the “AMPKa activation [pT172]” value in the experiment with AMPKa [pT172] (5 uM) amounted to 3.2 Unit/ml; in the experiment on AMPKa [pT172] (10 uM) it was 2.9 Unit/ml; in the experiment with AMPKa [pT172] (50 uM) it was 4.8 Unit/ml. Besides, in the experiment with HCT116 cells (Homo sapiens, HCT-116), the IC50 is 147 µM.
Regarding `CCCNC(=N)NC(=N)N.Cl` [Example 114, N1-propyl Biguanide Hydrochloride], the “AMPKa activation [pT172]” value with AMPKa [pT172] (50 uM) is listed as 6.1 Unit/ml. The IC50 in the experiment on HCT116 cells (Homo sapiens, HCT-116) worked out at 118 µM.
For `Cl.N=C(N)N/C(=N/c1ccc(Br)cc1)NCCc1ccccc1` [Example 95, N1-phenethvl-N2-(4-bromo)phenyl Biguanide Hydrochloride], the “AMPKa activation [pT172]” value was determined as 4.9 Unit/ml with AMPKa [pT172] (5 uM), 6.8 Unit/ml in the experiment with AMPKa [pT172] (10 uM) and 23.6 Unit/ml with AMPKa [pT172] (50 uM). The IC50 with HCT116 cells (Homo sapiens, HCT-116) is 14.1 µM.
In the same order, the values of `Cl.N=C(N)NC(=N)NCCc1ccc(Cl)cc1` [Example 137, N1-(4-chloro)phenethyl Biguanide Hydrochloride] are 4.1 Unit/ml, 7.3 Unit/ml, 11.9 Unit/ml and above 100 µM.
Regarding `Cl.N=C(NCc1cccc(C(F)(F)F)c1)NC(=N)Nc1cccnc1` [Example 43, N1-3-pyridin-N5-(3-trifluoromethyl)benzyl Biguanide Hydrochloride], the “AMPKa activation [pT172]” value in the experiment on AMPKa [pT172] (5 uM) came to 3.0 Unit/ml; in the experiment on AMPKa [pT172] (10 uM) it was 4.3 Unit/ml; with AMPKa [pT172] (50 uM) it was 7.6 Unit/ml. Further, the IC50 in the experiment on HCT116 cells (Homo sapiens, HCT-116) is 100 µM.
As to `CN1CCN(C(=N)NC(=N)Nc2cccc(C(F)(F)F)c2)CC1.Cl` [Example 21, N1-(4-methyl)piperazin-N5-(3-trifluoromethyl)phenyl Biguanide Hydrochloride], the “AMPKa activation [pT172]” value in the experiment on AMPKa [pT172] (5 uM) is 6.0 Unit/ml; in the experiment with AMPKa [pT172] (10 uM) it was 5.8 Unit/ml; in the experiment with AMPKa [pT172] (50 uM) it was 14.8 Unit/ml. The IC50 in the experiment with HCT116 cells (Homo sapiens, HCT-116) was determined as 43.2 µM.
For `CC1CCN(C(=N)NC(=N)Nc2ccc(C(F)(F)F)cc2)CC1.Cl` [Example 53, N1-(4-methyl)piperidin-N5-(4-trifluoromethyl)phenyl Biguanide Hydrochloride], the “AMPKa activation [pT172]” value was 9.2 Unit/ml with AMPKa [pT172] (5 uM), 13.9 Unit/ml with AMPKa [pT172] (10 uM) and “cell death” in the experiment on AMPKa [pT172] (50 uM). Moreover, in the experiment with HCT116 cells (Homo sapiens, HCT-116), the IC50 was found to be 6.1 µM.
For the molecule `CC/N=C(\NCc1ccc2c(c1)OCO2)NC(=N)N.Cl` [Example 100, N1-(benzo[d][1,3]dioxol-5-yl)methyl-N2-ethyl Biguanide Hydrochloride], the “AMPKa activation [pT172]” value in the experiment with AMPKa [pT172] (5 uM) came out at 7.1 Unit/ml; in the experiment on AMPKa [pT172] (10 uM) it was 9.0 Unit/ml; with AMPKa [pT172] (50 uM), 8.0 Unit/ml. Besides, the IC50 with HCT116 cells (Homo sapiens, HCT-116) was above 100 µM.
Taken in the same sequence, the figures for `CC1CCCN(C(=N)NC(=N)Nc2cnccn2)C1.Cl` (stereo not drawn) [Example 47, N1-(3-methyl)piperidin-N5-pyrazin-2-yl Biguanide Hydrochloride] were 2.8 Unit/ml, 3.8 Unit/ml, 5.3 Unit/ml and 130 µM.
Take `CCCN(CC)C(=N)NC(=N)N(CCC)CCC.Cl` [Example 7, N1,N1-dipropyl-N5-propyl-N5-ethyl Biguanide Hydrochloride]: the “AMPKa activation [pT172]” value is reported as 16.2 Unit/ml in the experiment with AMPKa [pT172] (5 uM), 22.3 Unit/ml in the experiment on AMPKa [pT172] (10 uM) and 34.6 Unit/ml in the experiment on AMPKa [pT172] (50 uM). In addition, in the experiment on HCT116 cells (Homo sapiens, HCT-116), the IC50 was above 100 µM.
On to `Cl.N=C(NC(=N)N1CCCC1)Nc1ccccc1C(F)(F)F` [Example 75, N1-pyrrolidin-N5-(2-trifluoromethyl)phenyl Biguanide Hydrochloride], for which the results for the “AMPKa activation [pT172]” value in the experiment on AMPKa [pT172] (5 uM), in the experiment on AMPKa [pT172] (10 uM) and in the experiment on AMPKa [pT172] (50 uM) were 3.5 Unit/ml, 3.6 Unit/ml and 5.3 Unit/ml, respectively. In addition, the IC50 in the experiment with HCT116 cells is above 100 µM.
Consider `Cl.N=C(NC1=NC(=O)CCN1)N1CCCCC1` [Example 156, N-(4-oxo-1,4,5,6-tetrahydropyrimidin-2-yl)piperidin-1-carboximidamide Hydrochloride], for which the “AMPKa activation [pT172]” value in the experiment on AMPKa [pT172] (5 uM) amounted to 3.6 Unit/ml; in the experiment with AMPKa [pT172] (10 uM), 2.6 Unit/ml; in the experiment with AMPKa [pT172] (50 uM), 4.9 Unit/ml. The 50% inhibitory concentration (IC50) in the experiment on HCT116 cells (Homo sapiens, HCT-116) was above 100 µM.
Regarding `Cl.N=C(NC(=N)N1CC=CCC1)N1CC=CCC1` [Example 68, N1-1,2,3,6-tetrahydropyridin-N5-1,2,3,6-tetrahydropyridine Biguanide Hydrochloride], the “AMPKa activation [pT172]” value was 4.2 Unit/ml in the experiment with AMPKa [pT172] (5 uM), 4.4 Unit/ml with AMPKa [pT172] (10 uM) and 4.4 Unit/ml in the experiment with AMPKa [pT172] (50 uM). Moreover, the IC50 in the experiment with HCT116 cells (Homo sapiens, HCT-116) is above 100 µM.

Broadly, the IC50 is the point on the concentration scale where inhibition reaches its midpoint.

The record behind these values is patent publication US11572341B2, “Biguanide compound and use thereof” (ImmunoMet Therapeutics Inc., priority 2014, dated 2023).
